Literature values, collected in US9987252B2, “Primary amines and derivitves thereof as modulators of the 5-HT2A serotonin receptor useful for the treatment of disorders related thereto” (Arena Pharmaceuticals, Inc., priority 2006, dated 2018).

Test system: diabetic rats
Settings: 19.8% sciatic motor conduction deficit in diabetic rats

Row | Compound | correction of sciatic motor conduction deficit
1 | Cc1nc2sccn2c(=O)c1CCN1CCC(=C(c2ccc(F)cc2)c2ccc(F)cc2)CC1 [ritanserin] | 82.6-99.7%
2 | COc1cccc(CCc2ccccc2OCC(CN(C)C)OC(=O)CCC(=O)O)c1 (stereo not drawn) [sarpogrelate] | 82.6-99.7%
3 | O=CN1CCC(C(=O)NCCN2CCC(=C3c4ccccc4C=Cc4ccccc43)CC2)CC1 [AT-1015] | 82.6-99.7%
